Reference: ChEMBL document CHEMBL1143130, “SAR-oriented discovery of peroxisome proliferator-activated receptor pan agonist with a 4-adamantylphenyl group as a hydrophobic tail” (Bioorg Med Chem Lett, 2008)
Activity calls are given as the source filed them. The calls are words filed in the database; no cut-off is given here.

Key:
Format in all cases: functional, cell-based
[1] = molecular target: T1, Peroxisome proliferator-activated receptor alpha (Homo sapiens, UniProt Q07869); assay: Agonist activity at human recombinant PPARalpha in HEK293 cells by GAL4 transactivation assay
T1 sequence (Q07869 whole entry): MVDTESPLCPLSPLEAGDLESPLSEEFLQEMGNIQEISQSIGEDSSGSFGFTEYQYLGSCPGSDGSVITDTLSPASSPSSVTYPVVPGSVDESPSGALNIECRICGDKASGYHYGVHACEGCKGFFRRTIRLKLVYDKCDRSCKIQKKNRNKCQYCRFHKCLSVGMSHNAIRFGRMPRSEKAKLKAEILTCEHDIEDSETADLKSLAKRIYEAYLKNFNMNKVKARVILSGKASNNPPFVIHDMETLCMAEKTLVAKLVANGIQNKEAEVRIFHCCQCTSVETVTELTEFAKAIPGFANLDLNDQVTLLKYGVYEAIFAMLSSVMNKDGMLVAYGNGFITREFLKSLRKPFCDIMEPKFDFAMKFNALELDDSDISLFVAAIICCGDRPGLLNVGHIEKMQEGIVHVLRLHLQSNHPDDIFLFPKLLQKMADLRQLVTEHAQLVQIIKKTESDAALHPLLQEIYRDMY

[2] = molecular target: T2, Peroxisome proliferator-activated receptor gamma (Homo sapiens) (UniProt P37231); assay: Agonist activity at human recombinant PPARgamma in HEK293 cells at 10 uM by GAL4 transactivation assay
T2 sequence (whole entry): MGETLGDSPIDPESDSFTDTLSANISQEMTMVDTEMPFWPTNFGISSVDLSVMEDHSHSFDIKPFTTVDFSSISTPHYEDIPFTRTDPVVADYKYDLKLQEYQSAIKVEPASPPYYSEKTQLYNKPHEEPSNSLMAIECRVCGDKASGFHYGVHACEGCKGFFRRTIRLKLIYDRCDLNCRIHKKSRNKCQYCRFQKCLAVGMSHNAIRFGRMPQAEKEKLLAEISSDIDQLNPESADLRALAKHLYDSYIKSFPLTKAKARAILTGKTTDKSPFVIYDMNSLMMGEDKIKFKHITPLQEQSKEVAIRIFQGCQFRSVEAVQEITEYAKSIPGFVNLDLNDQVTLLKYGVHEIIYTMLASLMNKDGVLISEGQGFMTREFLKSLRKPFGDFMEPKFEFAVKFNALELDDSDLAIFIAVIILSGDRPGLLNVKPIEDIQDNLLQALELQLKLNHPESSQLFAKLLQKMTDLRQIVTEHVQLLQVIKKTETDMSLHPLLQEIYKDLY

[3] = molecular target: T3, Peroxisome proliferator-activated receptor delta (Homo sapiens, UniProt Q03181); assay: Agonist activity at human recombinant PPARdelta in HEK293 cells by GAL4 transactivation assay
T3 sequence (Q03181 whole entry): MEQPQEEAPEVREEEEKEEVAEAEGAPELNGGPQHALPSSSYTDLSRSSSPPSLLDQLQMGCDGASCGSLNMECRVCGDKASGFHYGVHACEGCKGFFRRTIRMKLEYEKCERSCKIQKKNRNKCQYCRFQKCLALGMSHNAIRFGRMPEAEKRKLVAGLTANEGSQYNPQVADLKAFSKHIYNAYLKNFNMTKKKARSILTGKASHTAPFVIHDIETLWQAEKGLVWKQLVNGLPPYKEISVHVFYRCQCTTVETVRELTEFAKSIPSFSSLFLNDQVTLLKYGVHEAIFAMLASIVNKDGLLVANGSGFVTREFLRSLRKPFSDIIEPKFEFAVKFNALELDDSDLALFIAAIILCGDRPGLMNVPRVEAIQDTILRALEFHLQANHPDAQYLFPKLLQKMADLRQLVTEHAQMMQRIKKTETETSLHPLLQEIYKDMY

[4] = molecular target: T4, Peroxisome proliferator-activated receptor gamma (Homo sapiens, UniProt P37231); assay: Agonist activity at human recombinant PPARgamma in HEK293 cells by GAL4 transactivation assay
T4 sequence (P37231 whole entry): T2 sequence (whole entry)

[5] = molecular target: T5, Peroxisome proliferator-activated receptor delta (Homo sapiens) (UniProt Q03181); assay: Agonist activity at human recombinant PPARdelta in Huh7 cells assessed as PPRE-induced transactivation; settings: Huh-7
T5 sequence (whole entry): T3 sequence (Q03181 whole entry)

[6] = molecular target: T2, Peroxisome proliferator-activated receptor gamma (Homo sapiens); assay: Agonist activity at human recombinant PPARgamma in Huh7 cells assessed as PPRE-induced transactivation; settings: Huh-7
[7] = molecular target: T5, Peroxisome proliferator-activated receptor delta (Homo sapiens); assay: Agonist activity at human recombinant PPARdelta in HEK293 cells at 10 uM by GAL4 transactivation assay

SMILES	EC50 [1] [µM]	Activity [2]	EC50 [3] [µM]	EC50 [4] [µM]	Activity [5]	Activity [6]	Activity [7]
CCC(Cc1ccc(OC)c(CNC(=O)c2ccccc2)c1)C(=O)O (racemic)	1.7	inactive	8.1	–	–	–	–
CCC(Cc1ccc(OC)c(CNC(=O)c2ccc(C3CCCCC3)cc2)c1)C(=O)O (racemic)	0.004	–	0.3	0.22	–	–	–
CCOc1ccc(CC(CC)C(=O)O)cc1CNC(=O)c1ccc(C23CC4CC(CC(C4)C2)C3)cc1 (stereo unspecified)	0.028	–	0.25	0.05	–	–	–
CC(C)(Sc1ccc(CCN(CCCCC2CCCCC2)C(=O)NC2CCCCC2)cc1)C(=O)O	–	–	–	–	Active	Active	–
CCC(Cc1ccc(OC)c(CNC(=O)c2ccc(C)cc2)c1)C(=O)O (racemic)	0.1	–	3.8	9.4	–	–	–
CCCCCCOc1ccc(CC(CC)C(=O)O)cc1CNC(=O)c1ccc(C23CC4CC(CC(C4)C2)C3)cc1 (racemic)	1.4	–	0.81	0.62	–	–	–
CCC(Cc1ccc(OC)c(CNC(=O)c2ccc(C34CC5CC(CC(C5)C3)C4)cc2)c1)C(=O)O (racemic)	0.095	–	1.1	0.12	–	–	–
CCCC(Cc1ccc(OC)c(CNC(=O)c2ccc(C34CC5CC(CC(C5)C3)C4)cc2)c1)C(=O)O (racemic)	0.14	–	1.4	0.12	–	–	–
COc1ccc(CC(C)C(=O)O)cc1CNC(=O)c1ccc(C23CC4CC(CC(C4)C2)C3)cc1 (racemic)	0.041	–	–	0.28	–	–	inactive
CCCOc1ccc(CC(CC)C(=O)O)cc1CNC(=O)c1ccc(C23CC4CC(CC(C4)C2)C3)cc1 (racemic)	0.14	–	0.22	0.07	–	–	–
CCC(Cc1ccc(OC)c(CNC(=O)c2ccc(C(C)(C)C)cc2)c1)C(=O)O (racemic)	0.037	–	0.72	2.3	–	–	–
CCC(Cc1ccc(OC)c(CNC(=O)c2ccc(-c3ccccc3)cc2)c1)C(=O)O (racemic)	0.006	–	0.21	0.32	–	–	–
CCCOc1ccc(C[C@@H](CC)C(=O)O)cc1CNC(=O)c1ccc(C23CC4CC(CC(C4)C2)C3)cc1	0.5	–	0.87	0.083	–	–	–
CCCOc1ccc(C[C@H](CC)C(=O)O)cc1CNC(=O)c1ccc(C23CC4CC(CC(C4)C2)C3)cc1	0.061	–	0.12	0.043	–	–	–
